In experiment [1] the target is Protein-tyrosine kinase 6 (Homo sapiens) (UniProt Q13882). Briefly: Inhibition of BRK (unknown origin) at 10 uM after 120 mins P33 radiolabeled kinase activity assay.
Experiment [2] has as its target Protein kinase C eta type (Homo sapiens) (UniProt P24723). The experiment in a line: Inhibition of PKCeta (unknown origin) at 10 uM after 120 mins P33 radiolabeled kinase activity assay.
The target in experiment [3] is Tyrosine-protein kinase Fyn (Homo sapiens) (UniProt P06241). Briefly: Inhibition of FYN (unknown origin) at 10 uM after 120 mins P33 radiolabeled kinase activity assay.
Experiment [4] addresses T1, Serine/threonine-protein kinase D3 (Homo sapiens) (UniProt O94806).
T1 sequence (whole entry): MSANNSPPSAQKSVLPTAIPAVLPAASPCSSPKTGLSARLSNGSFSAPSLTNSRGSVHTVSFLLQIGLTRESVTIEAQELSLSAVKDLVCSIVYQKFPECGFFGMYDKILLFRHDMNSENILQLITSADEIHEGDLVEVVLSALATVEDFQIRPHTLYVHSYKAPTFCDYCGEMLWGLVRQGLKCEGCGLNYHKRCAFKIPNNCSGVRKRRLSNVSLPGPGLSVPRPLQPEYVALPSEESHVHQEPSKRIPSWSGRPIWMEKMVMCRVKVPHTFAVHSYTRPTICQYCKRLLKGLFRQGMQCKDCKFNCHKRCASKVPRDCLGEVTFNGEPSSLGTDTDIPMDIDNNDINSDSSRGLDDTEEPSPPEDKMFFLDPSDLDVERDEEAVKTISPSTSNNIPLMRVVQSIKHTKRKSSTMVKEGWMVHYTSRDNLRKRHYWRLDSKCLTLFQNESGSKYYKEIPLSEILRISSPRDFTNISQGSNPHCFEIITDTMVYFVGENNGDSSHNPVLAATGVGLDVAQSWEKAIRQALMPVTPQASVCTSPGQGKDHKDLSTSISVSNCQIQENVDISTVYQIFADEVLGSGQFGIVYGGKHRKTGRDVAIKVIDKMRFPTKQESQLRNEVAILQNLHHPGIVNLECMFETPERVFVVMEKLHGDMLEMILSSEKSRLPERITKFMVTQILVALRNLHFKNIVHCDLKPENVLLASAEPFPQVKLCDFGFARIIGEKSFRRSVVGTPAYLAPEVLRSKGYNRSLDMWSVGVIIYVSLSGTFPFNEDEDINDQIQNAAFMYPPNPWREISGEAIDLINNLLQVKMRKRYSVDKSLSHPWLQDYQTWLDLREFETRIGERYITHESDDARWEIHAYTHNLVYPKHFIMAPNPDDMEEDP
The experiment in a line: Inhibition of PKCnu (unknown origin) at 10 uM after 120 mins P33 radiolabeled kinase activity assay.

Experiment [5] has as its target Tyrosine-protein kinase Fgr (Homo sapiens) (UniProt P09769). Briefly: Inhibition of FGR (unknown origin) at 10 uM after 120 mins P33 radiolabeled kinase activity assay.
The target in experiment [6] is Calcium/calmodulin-dependent protein kinase type II subunit gamma (Homo sapiens) (UniProt Q13555). The experiment in a line: Inhibition of CAMK2gamma (unknown origin) at 10 uM after 120 mins P33 radiolabeled kinase activity assay.
Calcium/calmodulin-dependent protein kinase type II subunit gamma (Homo sapiens), sequence (Q13555 whole entry): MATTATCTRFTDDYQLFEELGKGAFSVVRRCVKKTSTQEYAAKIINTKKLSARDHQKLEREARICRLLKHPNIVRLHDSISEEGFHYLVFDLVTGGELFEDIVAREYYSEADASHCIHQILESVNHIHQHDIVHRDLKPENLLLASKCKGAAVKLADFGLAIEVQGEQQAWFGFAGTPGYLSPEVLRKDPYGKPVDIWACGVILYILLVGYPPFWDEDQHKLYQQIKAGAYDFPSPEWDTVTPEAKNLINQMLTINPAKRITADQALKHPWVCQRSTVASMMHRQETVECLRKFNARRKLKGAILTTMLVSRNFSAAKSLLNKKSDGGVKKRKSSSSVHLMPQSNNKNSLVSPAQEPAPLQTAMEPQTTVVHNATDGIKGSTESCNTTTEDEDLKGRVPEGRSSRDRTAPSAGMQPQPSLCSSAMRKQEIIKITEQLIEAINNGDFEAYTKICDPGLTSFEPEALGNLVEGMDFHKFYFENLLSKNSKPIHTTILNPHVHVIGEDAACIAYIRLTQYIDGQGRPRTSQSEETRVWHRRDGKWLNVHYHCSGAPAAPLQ
The target of experiment [7] is T2, Serine/threonine-protein kinase LATS2 (Homo sapiens) (UniProt Q9NRM7).
T2 sequence (whole entry): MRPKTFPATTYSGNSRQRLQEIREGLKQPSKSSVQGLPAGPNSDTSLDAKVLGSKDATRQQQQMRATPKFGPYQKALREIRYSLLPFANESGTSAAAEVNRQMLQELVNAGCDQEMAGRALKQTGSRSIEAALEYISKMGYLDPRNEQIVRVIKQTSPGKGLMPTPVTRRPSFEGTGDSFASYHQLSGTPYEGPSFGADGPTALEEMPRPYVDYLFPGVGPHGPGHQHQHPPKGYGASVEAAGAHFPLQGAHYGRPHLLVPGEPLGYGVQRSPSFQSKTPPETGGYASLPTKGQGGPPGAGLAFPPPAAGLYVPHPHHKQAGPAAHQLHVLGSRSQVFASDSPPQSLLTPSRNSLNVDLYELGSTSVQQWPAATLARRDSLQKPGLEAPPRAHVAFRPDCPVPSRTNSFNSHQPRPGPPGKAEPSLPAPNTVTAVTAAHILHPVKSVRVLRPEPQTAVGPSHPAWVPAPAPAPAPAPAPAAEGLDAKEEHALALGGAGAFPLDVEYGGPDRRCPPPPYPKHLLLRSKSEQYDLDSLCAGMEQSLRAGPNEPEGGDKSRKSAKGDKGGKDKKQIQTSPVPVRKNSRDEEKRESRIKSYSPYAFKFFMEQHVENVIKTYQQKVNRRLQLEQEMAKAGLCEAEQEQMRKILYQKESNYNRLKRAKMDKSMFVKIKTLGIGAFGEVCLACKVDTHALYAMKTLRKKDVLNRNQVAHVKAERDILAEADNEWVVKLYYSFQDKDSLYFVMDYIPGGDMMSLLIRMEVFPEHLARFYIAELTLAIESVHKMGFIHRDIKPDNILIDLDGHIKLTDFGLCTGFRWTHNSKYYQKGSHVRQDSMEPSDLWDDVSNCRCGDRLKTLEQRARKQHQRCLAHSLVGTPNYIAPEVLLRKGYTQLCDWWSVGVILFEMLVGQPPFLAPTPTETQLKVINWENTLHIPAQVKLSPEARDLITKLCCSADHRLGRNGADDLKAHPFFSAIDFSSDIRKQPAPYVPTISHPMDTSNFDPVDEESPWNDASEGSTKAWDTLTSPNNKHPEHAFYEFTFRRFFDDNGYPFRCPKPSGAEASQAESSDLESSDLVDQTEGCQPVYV
The experiment in a line: Inhibition of LATS2 (unknown origin) at 10 uM after 120 mins P33 radiolabeled kinase activity assay.

Experiment [8] deals with ALK tyrosine kinase receptor (Homo sapiens) (UniProt Q9UM73). Briefly: Inhibition of ALK (unknown origin) at 10 uM after 120 mins P33 radiolabeled kinase activity assay.
The target of experiment [9] is Serine/threonine-protein kinase pim-1 (Homo sapiens) (UniProt P11309). The experiment in a line: Inhibition of PIM1 (unknown origin) at 10 uM after 120 mins P33 radiolabeled kinase activity assay.
The target of experiment [10] is Ephrin type-A receptor 5 (Homo sapiens) (UniProt P54756). Briefly: Inhibition of EPHA5 (unknown origin) at 10 uM after 120 mins P33 radiolabeled kinase activity assay.
Ephrin type-A receptor 5 (Homo sapiens), sequence (P54756 whole entry): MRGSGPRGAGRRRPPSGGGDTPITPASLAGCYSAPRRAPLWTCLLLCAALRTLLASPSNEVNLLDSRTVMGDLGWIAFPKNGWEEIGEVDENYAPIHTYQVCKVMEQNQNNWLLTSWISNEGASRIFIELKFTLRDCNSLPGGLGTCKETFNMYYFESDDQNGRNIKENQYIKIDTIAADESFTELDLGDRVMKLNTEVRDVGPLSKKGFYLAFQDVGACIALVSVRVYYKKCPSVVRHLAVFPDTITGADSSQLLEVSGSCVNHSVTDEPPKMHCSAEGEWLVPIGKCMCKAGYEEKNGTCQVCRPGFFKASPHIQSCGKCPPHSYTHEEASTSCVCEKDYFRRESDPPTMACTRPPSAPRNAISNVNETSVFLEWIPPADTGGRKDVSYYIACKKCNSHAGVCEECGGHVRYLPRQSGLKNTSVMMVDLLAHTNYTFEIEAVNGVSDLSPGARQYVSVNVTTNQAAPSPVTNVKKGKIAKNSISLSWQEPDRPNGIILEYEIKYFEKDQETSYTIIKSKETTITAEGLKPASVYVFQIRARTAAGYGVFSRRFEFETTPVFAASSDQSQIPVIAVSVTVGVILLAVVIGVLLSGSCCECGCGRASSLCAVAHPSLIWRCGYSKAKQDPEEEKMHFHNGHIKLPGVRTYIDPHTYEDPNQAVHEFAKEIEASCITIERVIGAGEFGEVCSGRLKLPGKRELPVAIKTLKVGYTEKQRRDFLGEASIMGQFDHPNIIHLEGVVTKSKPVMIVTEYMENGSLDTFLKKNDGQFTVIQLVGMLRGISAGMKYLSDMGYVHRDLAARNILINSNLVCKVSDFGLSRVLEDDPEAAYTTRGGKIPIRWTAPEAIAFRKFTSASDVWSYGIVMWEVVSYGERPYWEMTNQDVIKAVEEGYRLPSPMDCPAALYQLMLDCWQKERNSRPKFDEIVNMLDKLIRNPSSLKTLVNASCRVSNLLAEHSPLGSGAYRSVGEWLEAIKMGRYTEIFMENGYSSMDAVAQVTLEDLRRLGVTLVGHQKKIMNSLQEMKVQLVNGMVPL
The target in experiment [11] is Epidermal growth factor receptor (Homo sapiens) (UniProt P00533). The experiment in a line: Inhibition of EGFR (unknown origin) at 10 uM after 120 mins P33 radiolabeled kinase activity assay.
Epidermal growth factor receptor (Homo sapiens), sequence (P00533 whole entry): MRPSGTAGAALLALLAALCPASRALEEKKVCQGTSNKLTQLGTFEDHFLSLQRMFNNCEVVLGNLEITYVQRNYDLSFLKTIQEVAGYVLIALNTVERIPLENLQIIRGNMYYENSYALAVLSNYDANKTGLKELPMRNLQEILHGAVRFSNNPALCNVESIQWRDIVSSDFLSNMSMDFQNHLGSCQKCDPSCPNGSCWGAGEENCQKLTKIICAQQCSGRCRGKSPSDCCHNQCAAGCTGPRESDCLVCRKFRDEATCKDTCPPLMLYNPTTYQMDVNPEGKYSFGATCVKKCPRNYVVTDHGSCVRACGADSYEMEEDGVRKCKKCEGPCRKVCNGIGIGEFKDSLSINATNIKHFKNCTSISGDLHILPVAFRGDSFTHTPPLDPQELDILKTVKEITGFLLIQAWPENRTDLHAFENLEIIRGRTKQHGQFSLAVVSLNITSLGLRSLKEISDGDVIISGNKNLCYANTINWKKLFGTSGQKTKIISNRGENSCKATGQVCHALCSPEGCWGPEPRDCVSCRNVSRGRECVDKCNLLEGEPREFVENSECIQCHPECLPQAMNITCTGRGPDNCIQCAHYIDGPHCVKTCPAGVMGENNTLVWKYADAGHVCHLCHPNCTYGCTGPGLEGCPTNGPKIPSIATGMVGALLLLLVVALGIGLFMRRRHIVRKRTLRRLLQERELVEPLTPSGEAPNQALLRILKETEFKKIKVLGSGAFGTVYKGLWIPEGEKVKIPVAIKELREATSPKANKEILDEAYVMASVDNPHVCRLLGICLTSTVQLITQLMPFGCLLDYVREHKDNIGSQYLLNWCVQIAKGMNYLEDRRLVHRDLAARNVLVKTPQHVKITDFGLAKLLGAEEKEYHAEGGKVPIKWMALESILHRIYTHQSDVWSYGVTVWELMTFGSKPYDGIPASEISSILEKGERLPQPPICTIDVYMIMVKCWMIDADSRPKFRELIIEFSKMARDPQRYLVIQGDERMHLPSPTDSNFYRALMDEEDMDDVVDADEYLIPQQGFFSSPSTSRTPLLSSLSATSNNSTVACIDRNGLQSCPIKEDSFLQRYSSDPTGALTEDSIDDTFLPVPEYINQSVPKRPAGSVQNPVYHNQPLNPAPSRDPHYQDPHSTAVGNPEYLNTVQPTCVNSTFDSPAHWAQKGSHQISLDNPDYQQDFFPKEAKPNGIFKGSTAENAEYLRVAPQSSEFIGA
Experiment [12] concerns the target Mitogen-activated protein kinase 3 (Homo sapiens) (UniProt P27361). The experiment in a line: Inhibition of ERK1 (unknown origin) at 10 uM after 120 mins P33 radiolabeled kinase activity assay.
The target of experiment [13] is Serine/threonine-protein kinase 32C (Homo sapiens) (UniProt Q86UX6). Briefly: Inhibition of STK32C (unknown origin) at 10 uM after 120 mins P33 radiolabeled kinase activity assay.
Serine/threonine-protein kinase 32C (Homo sapiens), sequence (Q86UX6 whole entry): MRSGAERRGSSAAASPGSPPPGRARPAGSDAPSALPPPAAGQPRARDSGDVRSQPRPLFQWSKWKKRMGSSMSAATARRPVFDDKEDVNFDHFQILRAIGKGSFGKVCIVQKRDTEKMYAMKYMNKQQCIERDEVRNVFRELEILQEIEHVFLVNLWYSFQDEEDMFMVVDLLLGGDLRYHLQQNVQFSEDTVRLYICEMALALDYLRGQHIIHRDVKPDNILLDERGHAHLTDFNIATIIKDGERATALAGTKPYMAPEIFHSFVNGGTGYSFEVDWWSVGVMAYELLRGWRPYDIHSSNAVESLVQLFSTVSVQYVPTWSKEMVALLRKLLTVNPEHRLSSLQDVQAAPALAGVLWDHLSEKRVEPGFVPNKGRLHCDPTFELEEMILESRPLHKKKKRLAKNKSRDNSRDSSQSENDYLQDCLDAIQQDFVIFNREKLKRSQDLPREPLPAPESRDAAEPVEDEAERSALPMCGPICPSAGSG

The values that follow come from ChEMBL document CHEMBL3627608, “Crystal structures of human RIP2 kinase catalytic domain complexed with ATP-competitive inhibitors: Foundations for understanding inhibitor selectivity” (Bioorg Med Chem, 2015).

Tyrosine-protein kinase Fgr (Homo sapiens), sequence (P09769 2-529 limits assumed): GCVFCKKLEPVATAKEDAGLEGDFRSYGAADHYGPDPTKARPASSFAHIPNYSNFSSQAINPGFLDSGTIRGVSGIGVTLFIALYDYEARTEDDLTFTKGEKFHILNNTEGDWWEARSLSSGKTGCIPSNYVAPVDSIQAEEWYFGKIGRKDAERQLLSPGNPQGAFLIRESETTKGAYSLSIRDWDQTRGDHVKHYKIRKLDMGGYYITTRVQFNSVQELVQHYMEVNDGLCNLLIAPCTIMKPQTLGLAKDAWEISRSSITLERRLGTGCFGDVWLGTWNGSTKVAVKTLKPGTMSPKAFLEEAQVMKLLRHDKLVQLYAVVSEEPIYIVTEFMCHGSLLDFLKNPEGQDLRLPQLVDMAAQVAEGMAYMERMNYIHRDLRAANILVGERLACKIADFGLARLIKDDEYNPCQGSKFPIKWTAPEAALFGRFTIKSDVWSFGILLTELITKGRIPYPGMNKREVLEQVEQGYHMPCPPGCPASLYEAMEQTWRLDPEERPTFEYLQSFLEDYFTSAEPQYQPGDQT
Mitogen-activated protein kinase 3 (Homo sapiens), sequence (P27361 whole entry): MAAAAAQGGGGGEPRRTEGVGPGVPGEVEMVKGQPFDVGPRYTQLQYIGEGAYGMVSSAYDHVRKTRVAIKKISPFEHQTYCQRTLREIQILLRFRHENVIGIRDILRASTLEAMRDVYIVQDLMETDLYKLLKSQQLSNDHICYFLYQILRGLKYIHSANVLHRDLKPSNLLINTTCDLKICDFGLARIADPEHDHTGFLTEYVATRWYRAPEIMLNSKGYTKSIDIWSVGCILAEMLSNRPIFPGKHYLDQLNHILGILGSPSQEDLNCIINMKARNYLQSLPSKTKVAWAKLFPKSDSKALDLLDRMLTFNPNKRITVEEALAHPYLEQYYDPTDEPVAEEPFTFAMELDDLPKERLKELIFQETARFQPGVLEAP
Protein kinase C eta type (Homo sapiens), sequence (P24723 whole entry): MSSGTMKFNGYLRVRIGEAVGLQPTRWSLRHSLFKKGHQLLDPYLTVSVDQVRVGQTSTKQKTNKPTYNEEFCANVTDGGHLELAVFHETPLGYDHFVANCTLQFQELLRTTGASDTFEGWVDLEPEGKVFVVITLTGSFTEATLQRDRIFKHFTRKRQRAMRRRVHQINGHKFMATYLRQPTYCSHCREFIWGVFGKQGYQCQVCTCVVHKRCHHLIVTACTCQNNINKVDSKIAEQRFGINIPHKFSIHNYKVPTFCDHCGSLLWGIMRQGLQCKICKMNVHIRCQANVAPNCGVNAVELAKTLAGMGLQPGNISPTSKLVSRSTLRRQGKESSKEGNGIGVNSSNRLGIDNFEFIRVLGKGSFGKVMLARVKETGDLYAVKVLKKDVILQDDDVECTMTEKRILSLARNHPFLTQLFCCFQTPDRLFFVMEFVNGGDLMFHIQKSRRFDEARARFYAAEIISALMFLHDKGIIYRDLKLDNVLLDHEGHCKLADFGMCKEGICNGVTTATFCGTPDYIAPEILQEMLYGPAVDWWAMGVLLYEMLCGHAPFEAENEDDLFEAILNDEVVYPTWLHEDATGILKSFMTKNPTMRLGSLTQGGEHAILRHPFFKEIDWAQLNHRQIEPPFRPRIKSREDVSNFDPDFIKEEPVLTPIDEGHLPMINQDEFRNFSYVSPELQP

Turning to `CS(=O)(=O)c1cccc(Nc2nccc(-c3sc(N4CCOCC4)nc3-c3cccc(NS(=O)(=O)c4c(F)cccc4F)c3)n2)c1`, the inhibition (commonly the relative decrease from the control value, in per cent) was 100% in experiment [1]; -5.94% in experiment [2]; 99.8% in experiment [3]; 99.9% in experiment [4]; 100% in experiment [5]; 7.84% in experiment [6]. The inhibition in experiment [7] was 21.9%; in [8], 6.1%; in experiment [9], 10.6%; in experiment [10], 58%; in [11], 88%; in experiment [12], -3.91%. Also, the inhibition in experiment [13] amounted to 8.37%.

As to `CC(C)(C)c1cc(NC(=O)Nc2ccc(Oc3ccncc3)cc2)no1`, the inhibition is 95.7% in [1]; -2.64% in experiment [2]; 85.8% in experiment [3]; 11.4% in [4]; 90.7% in experiment [5]; 3.21% in [6]. Further, the inhibition amounted to 50.2% in experiment [7]; 17.4% in [8]; 64.5% in experiment [9]; 95.5% in experiment [10]; 6.23% in [11]; 3.03% in experiment [12]. The inhibition in [13] is 12.9%.

Take `COCCNC(=O)c1ccc2c(c1)nc(-c1cnc(-c3ccc(Cl)cc3)[nH]1)n2CCOC`: the inhibition in [1] worked out at 84.4%; in experiment [2], 0.75%; in [3], 49.1%; in experiment [4], 9.76%; in experiment [5] it was 67.5%; in experiment [6], 9.22%. Besides, the inhibition in experiment [7] stood at 2.32%; in [8], 0.02%; in experiment [9], 7.46%; in [10], 20.2%; in experiment [11], 7.68%; in experiment [12], 1.41%. In experiment [13], the inhibition is 13%.
